Here are results for 13 compounds from ChEMBL document CHEMBL1201862, “PubChem BioAssay data set” (2004).

Structures are written as SMILES.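 Assay format: 96-well plates, 48-hour exposure. GI50 = concentration required for 50% inhibition of growth.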 Calls of active or inactive are those of the source. No stated cut-off is given here; in the data, active = GI50 up to about 1.1 µM and inactive = higher.

Common to all, as to experiment: NCI anticancer screen, dose series, 48 h
The subject of assay [1] is A549.
Assay [2] has as its system DLD-1.
In assay [3] the test system is DMS-114.
Assay [4] has as its system HCC 2998.
The test system of assay [5] is HCT-116.
The subject of assay [6] is HL-60.
Assay [7] relates to HOP-92.
Assay [8] has as its system HT-29.
The subject of assay [9] is M19-MEL.
Assay [10] concerns Malme-3M.
Assay [11] has as its system NCI-H226.
For assay [12], the system named is NCI-H522.
For assay [13], the system named is SN12C.
In assay [14] the test system is SNB-75.
Assay [15] relates to SW-620.
In assay [16] the test system is UO-31.
Assay [17] has as its system SK-MEL-2.
The subject of assay [18] is SR.
Assay [19] has as its system Hs-578T.
Assay [20] concerns MDA-MB-231.

For the compound `CCOC(=O)C1N(S(=O)(=O)c2ccc(C)cc2)CCC12C(c1ccc(OC)c(OC)c1)=Nc1ccccc12` (stereo not given), the GI50 in assay [1], in assay [2], in [3], in [4], in assay [5] and in [6] was > 100 µM (inactive) throughout. For the same compound, the GI50 was 28.5 µM (inactive) in assay [7]; > 100 µM (inactive) in [8]; > 100 µM (inactive) in assay [9]; > 100 µM (inactive) in assay [10]; > 100 µM (inactive) in [11]; > 100 µM (inactive) in assay [12]. The GI50 in [13] is > 100 µM (inactive); in [14] it was 35.5 µM (inactive); in [15] it was > 100 µM (inactive); in assay [16], > 100 µM (inactive).
For `CC1(c2cccc3c2C2(O)C=CC4(CCC32)OCCO4)OCCO1` (stereo not given), the GI50 in [1], in assay [2], in [3], in assay [4], in assay [5] and in assay [6] was > 100 µM (inactive) each time. The GI50 in assay [8], in assay [9], in assay [10], in assay [11], in [12] and in assay [17] was > 100 µM (inactive) each time. For the same compound, the GI50 in [13], in assay [14], in assay [15] and in assay [16] was > 100 µM (inactive) in each case.
Regarding `CC1=N/C(=C\c2ccc(/C=C3/N=C(C)OC3=O)cc2)C(=O)O1`, the GI50 in [1], in [2], in assay [3], in assay [4], in [5] and in [7] was > 100 µM (inactive) in each case. Besides, the GI50 in assay [8], in assay [9], in assay [10], in assay [12], in assay [17] and in assay [13] was > 100 µM (inactive) throughout. In addition, the GI50 in [14], in assay [15] and in [16] was > 100 µM (inactive) in each case.
Regarding `O=c1c2cc(Br)ccc2nc(-c2ccccc2)n1NCC1(O)OCC(O)C(O)C1O` (stereo not given), the GI50 is > 100 µM (inactive) in assay [1]; > 100 µM (inactive) in assay [3]; > 100 µM (inactive) in assay [5]; 26.2 µM (inactive) in assay [6]; > 100 µM (inactive) in assay [8]; > 100 µM (inactive) in assay [9]. For the same compound, the GI50 in [10], in assay [11], in assay [12], in [17], in assay [13] and in [14] was > 100 µM (inactive) each time. For the same compound, the GI50 is 48.8 µM (inactive) in assay [18], > 100 µM (inactive) in [15] and > 100 µM (inactive) in assay [16].
`Cc1ccc(-c2cc(-c3ccccc3)c(C#N)c(=O)n2C2OC(CO)C(O)C(O)C2O)cc1` (stereo not given): the GI50 in [1], in [2], in assay [3], in [4], in assay [5] and in assay [6] was > 100 µM (inactive) each time. The GI50 in assay [7], in assay [8], in assay [9], in assay [10], in assay [11] and in assay [12] was > 100 µM (inactive) throughout. For the same compound, the GI50 in [13], in assay [15] and in assay [16] was > 100 µM (inactive) each time.
In the case of `C#CCN1CCN(C(=S)N/N=C(\C)c2ccccn2)CC1`, the GI50 in assay [1] is 3.12 µM (inactive); in [2] it was 0.01 µM (active); in assay [3] it was 0.01 µM (active); in assay [4], 0.568 µM (active); in assay [5] it was 0.001 µM (active); in assay [6] it was 0.01 µM (active). Moreover, the GI50 in assay [7] was 0.166 µM (active); in assay [8], 0.115 µM (active); in assay [19] it was 1.74 µM (inactive); in assay [20], 1.28 µM (inactive); in assay [10], 1 µM (active); in assay [11], 1.19 µM (inactive). The GI50 was 0.0552 µM (active) in assay [12]; 0.262 µM (active) in [17]; 0.232 µM (active) in [13]; 4.86 µM (inactive) in assay [14]; 0.011 µM (active) in [18]; 0.0262 µM (active) in assay [15]. Further, the GI50 in [16] was 0.634 µM (active).
For the compound `CCN(CC)C(=O)CCn1cc(F)c(=O)[nH]c1=O`, the GI50 in assay [1], in [3], in assay [5], in assay [6], in assay [8] and in [9] was > 100 µM (inactive) in each case. The GI50 was > 100 µM (inactive) in [10]; > 100 µM (inactive) in assay [11]; > 100 µM (inactive) in [12]; > 100 µM (inactive) in assay [17]; > 100 µM (inactive) in assay [13]; 4.68 µM (inactive) in assay [14]. Moreover, the GI50 in [18], in assay [15] and in assay [16] was > 100 µM (inactive) in each case.
As for `CNC(=S)NC(=S)N(C)C`, the GI50 in [1] was 7.67 µM (inactive); in assay [2], 5.48 µM (inactive); in assay [3], 64.9 µM (inactive); in [4], > 100 µM (inactive); in assay [5], 4.71 µM (inactive); in [6], 3.42 µM (inactive). Also, the GI50 in [7] was > 100 µM (inactive); in assay [11], > 100 µM (inactive); in [12] it was 0.678 µM (active); in assay [13], > 100 µM (inactive); in [14], > 100 µM (inactive); in assay [18], 3.44 µM (inactive). The GI50 is 2.96 µM (inactive) in assay [15] and > 100 µM (inactive) in assay [16].
For `CCOC(=O)C1=C(C)C2C3C(=O)NC(=O)C3C1(C)C1C(=O)NC(=O)C21` (stereo not given), the GI50 in [1], in [2], in assay [3], in [4], in [5] and in assay [6] was > 100 µM (inactive) each time. For the same compound, the GI50 in assay [7] was > 100 µM (inactive); in assay [8], > 100 µM (inactive); in [9], > 100 µM (inactive); in [10] it was > 100 µM (inactive); in [11], < 0.01 µM (active); in [17] it was > 100 µM (inactive). In addition, the GI50 in assay [13], in assay [14], in assay [15] and in [16] was > 100 µM (inactive) in each case.
Take `COC(=O)C(=O)C(C(=O)C(=O)Nc1cc(Cl)c(Cl)cc1Cl)c1nc2ccc([N+](=O)[O-])cc2nc1O` (stereo not given): the GI50 in assay [1], in assay [3], in assay [4], in [5], in [9] and in [10] was > 100 µM (inactive) in each case. Also, the GI50 in assay [11] is > 100 µM (inactive); in [12], 46.9 µM (inactive); in assay [17] it was > 100 µM (inactive); in assay [13], > 100 µM (inactive); in [18], > 100 µM (inactive); in assay [15], > 100 µM (inactive). In addition, in assay [16], the GI50 is 51.4 µM (inactive).
Consider `COc1ccc(Nc2nc3c(N)cc(C(F)(F)F)cc3nc2-c2ccccc2)cc1OC`, for which the GI50 was 22 µM (inactive) in assay [1]; 22.7 µM (inactive) in [2]; 24.1 µM (inactive) in assay [4]; 25.6 µM (inactive) in assay [5]; 8.63 µM (inactive) in assay [6]; 20.5 µM (inactive) in assay [7]. Moreover, the GI50 in assay [9] is 22.5 µM (inactive); in assay [10] it was 16.4 µM (inactive); in [11], 24.2 µM (inactive); in assay [12], 15.6 µM (inactive); in assay [17] it was 22 µM (inactive); in [13], 20.2 µM (inactive). Also, the GI50 in assay [14] is 4.85 µM (inactive); in assay [18], 92.7 µM (inactive); in assay [15], 57.4 µM (inactive); in assay [16], 30.3 µM (inactive).
On to `COC(=O)[C@]1(C)CCC[C@]2(C)C3CC4OOC3(C=C4C(C)(C)O)CCC21` (stereo not given in full), for which the GI50 was 38.4 µM (inactive) in assay [1]; 28.4 µM (inactive) in assay [2]; 30.8 µM (inactive) in [3]; 31.8 µM (inactive) in [5]; 14.3 µM (inactive) in assay [6]; 22.6 µM (inactive) in [8]. The GI50 is 43 µM (inactive) in [9]; > 100 µM (inactive) in [10]; 31.1 µM (inactive) in [11]; 20.2 µM (inactive) in assay [12]; > 100 µM (inactive) in assay [17]; > 100 µM (inactive) in assay [13]. Further, the GI50 in [15] is 36.1 µM (inactive); in assay [16] it was > 10 µM (inactive).
Turning to `O=C(CCc1cc(-c2ccc(F)cc2)n[nH]1)N(Cc1ccccc1)Cc1ccccc1`, the GI50 in assay [1], in assay [3], in [4], in [5], in assay [7] and in [8] was > 100 µM (inactive) in each case. Moreover, the GI50 in [9], in [10], in assay [11], in [12], in assay [17] and in assay [13] was > 100 µM (inactive) each time. Moreover, the GI50 is > 100 µM (inactive) in assay [14], 13.8 µM (inactive) in assay [18], > 100 µM (inactive) in [15] and > 100 µM (inactive) in [16].
